Literature values in US6583123B2, “Aminosugar, glycosaminoglycan, and S-adenosylmethionine composition for the treatment and repair of connective tissue” (Nutramax Laboratories, Inc., priority 1996, dated 2003).
Blank lines part the entries; values can stand above or below the molecule they belong to.

What was measured:
[1] = tested on: inflammation
[2] = tested on: wound healing; details: topical application, in vivo
[3] = tested on: fibroblasts; details: in vitro
[4] = tested on: osteoarthritis; details: humans with osteoarthritis
[5] = oral, humans, versus placebo
[6] = some forms of exogenous SAM, given orally
[7] = SAM per se (not stable salts)
[8] = not given; remark: listed apart in the source

Compound: Nc1ncnc2c1ncn2[C@@H]1O[C@H](CO)[C@@H](O)[C@H]1O [adenosine]
anti-inflammatory effect [1]: more modest anti-inflammatory effect

absorption after oral administration (humans and animals): rapidly absorbed
tissue localization of ingested glucosamine (oral): localizes to cartilage and joint tissues
Compound: N[C@H]1C(O)O[C@H](CO)[C@@H](O)[C@@H]1O (stereo partly shown) [Glucosamine]
wound healing [2]: enhanced wound healing
synthesis of collagen and glycosaminoglycans [3]: increase the synthesis of collagen and glycosaminoglycans
symptoms and cartilage integrity [4]: reproducible improvement in symptoms and cartilage integrity

stability in digestive juices [6]: stable in digestive juices
stability [7]: unstable
Compound: C[S+](CC[C@H](N)C(=O)[O-])C[C@H]1O[C@@H](n2cnc3c(N)ncnc32)[C@H](O)[C@@H]1O (stereo partly shown) [SAM, S-Adenosylmethionine]
tolerability [5]: tolerated to the same extent as placebo

Compound: [Mn+2] [manganese]
dietary manganese absorbed by the body tissue [8]: Approximately 40%
